Source: patent publication US20090297438A1, “Human Monoclonal Antibodies to Prostate Specific Membrane Antigen (PSMA)” (priority 2005, published 2009)

Tested on: LNCaP human prostate carcinoma xenografts
Assay: LNCaP tumor xenografts treated with Taxotere and 7F12 antibody
Format: in vivo, male CB17.SCID mice
Conditions: Taxotere alone, 2 and 4 mg/kg iv
Protocol: The anti-tumor efficacy of the anti-PSMA 7F12 antibody in combination with Taxotere® (docetaxel) was tested on LNCaP human prostate carcinoma xenografts grown in male CB17.SCID mice.
LNCaP prostate cancer cells expressing high levels of PSMA were obtained from ATCC (Cat# CRL-1740) and expanded in vitro following ATCC instruction. 8 week-old male CB17.SCID mice from Taconic were implanted subcutaneously in the right flank with 2.5×10^6 LNCaP cells in 0.2 ml of PBS/Matrigel (1:1) per mouse. Mice were weighed and measured for tumor volume using an electronic caliper twice weekly starting three weeks post implantation. Tumor volumes were calculated as height×width×length. Mice with vascularized tumors (determined by the appearance of the tumors) of 180 mm^3 were randomized into treatment group and were dosed per individual body weight on Day 0. Mice were monitored for tumor growth around 60 days post dosing and terminated at the end of the study. Mice were euthanized when the tumors reached tumor end point (1500 mm^3). Taxotere® was dosed at Q3Dx3 intravenously (iv) through the tail vein. Isotype control antibody Rituxan® and the anti-PSMA 7F12 antibody were dosed intraperitoneally (ip) Q3Dx5, followed with Q7Dx6.

Question: Which anti-tumor growth efficacy does the source give for `CC(=O)O[C@@]12CO[C@@H]1C[C@H](O)[C@@]1(C)C(=O)[C@H](O)C3=C(C)[C@@H](OC(=O)[C@H](O)[C@@H](NC(=O)OC(C)(C)C)c4ccccc4)C[C@@](O)([C@@H](OC(=O)c4ccccc4)[C@H]21)C3(C)C` [Taxotere®, docetaxel] here?
Answer: dose-dependent anti-tumor growth efficacy
